Test results taken from PMC8741796, “In vitro characterization of a small molecule PD-1 inhibitor that targets the PD-l/PD-L1 interaction” (Scientific Reports, 2022).
“Also recorded” adds a separate entry of the source. Read-outs that look alike come from different tables or passages of the source.

Columns and labels:
PD-1/PD-L1 interaction = target: T1, PD-1/PD-L1 interaction (Homo sapiens, UniProt Q15116); assay: Cell-based PD-1/PD-L1 checkpoint assay (bioluminescent NFAT-luciferase, Jurkat effector cells / PD-L1/TCR HEK293 target cells); conditions: CH compounds 0, 10, 20, 40 µM; CH-4 effect at 10 µM
T1 construct: expressed in transfected cells
T1 sequence (Q15116 25-288): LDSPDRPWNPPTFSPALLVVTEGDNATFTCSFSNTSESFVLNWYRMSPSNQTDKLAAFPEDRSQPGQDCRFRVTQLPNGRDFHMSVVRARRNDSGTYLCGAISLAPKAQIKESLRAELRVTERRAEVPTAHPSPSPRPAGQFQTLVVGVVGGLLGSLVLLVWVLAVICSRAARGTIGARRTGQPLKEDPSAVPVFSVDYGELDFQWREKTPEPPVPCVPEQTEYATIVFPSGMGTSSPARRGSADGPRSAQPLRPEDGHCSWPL
From the text: Protein docking analysis identified six potential SMIs targeting PD-1: CH-1, CH-2, CH-3, CH-4, CH-5, and CH-6. To evaluate their capacity to inhibit the PD-1/PD-L1 interaction, we used a cell-based PD-1/PD-L1 inhibitor screening approach consisting of a bioluminescent cell-based assay containing two main components; genetically manipulated effector cells (growth-arrested reporter Jurkat cells) and engineered PD-L1/TCR-overexpressed HEK293 cells (target cells). In this assay, PD-1-expressed effector cells were genetically manipulated with the nuclear factor of activated T-cells (NFAT)-associated luciferase reporter gene. We used HEK293 cells for transient overexpression of PD-L1 and an engineered TCR activator as target cells. When the two cells were co-cultivated, the PD-1/PD-L1 interaction prevented TCR activation and suppressed NFAT-induced luciferase activity.
The WST-1 cytotoxicity assay evaluated cytotoxicity in effector cells (Jurkat cells) (Fig. 2A) and target cells (HEK293 cells) (Fig. 2B). The OD value that resulted from WST-1 reagent dye formation strongly correlated with the number of metabolically live cells. […] These groups were treated with increasing concentrations of anti-PD-1 neutralizing antibody (0, 0.1, 1 and 10 µg/mL) and luminescence intensity was determined after treatments. […]

HEK293 cells = assay: WST-1 cell cytotoxicity assay in HEK293 cells; assay type: cell-based; conditions: WST-1, 48 h
Experimental: (§1) The WST-1 cytotoxicity assay evaluated cytotoxicity in effector cells (Jurkat cells) (Fig. 2A) and target cells (HEK293 cells) (Fig. 2B). The OD value that resulted from WST-1 reagent dye formation strongly correlated with the number of metabolically live cells. To further characterize cytotoxicity tolerance, CC50 (cytotoxic concentration 50%) values were calculated and are shown in Table 1. […] Doses of compounds in the screening assay were based on the CC50 values of each cell line. Thus, screening concentrations of CH-1, -2, -3, -4 and -6 were 0, 10, 20 and 40 µM, respectively, while the concentrations for CH-5 were 0, 0.1, 1 and 10 µM, respectively. To ensure reliable screening, anti-PD-1 neutralizing antibody (Cat No. 71120) was used as a positive control for inhibiting the interaction of PD-1/PD-L1, while HEK293 cells transfected with control plasmid served as the negative control. These groups were treated with increasing concentrations of anti-PD-1 neutralizing antibody (0, 0.1, 1 and 10 µg/mL) and luminescence intensity was determined after treatments.
(§2) Figure 2 In vitro screening of leading compounds. (A) Jurkat cells and (B) HEK293 cells were treated with six leading compounds to test cytotoxicity. Cells were seeded into 96-well plates at a density of 7 × 10^3/well and incubated overnight. The cells were then treated for 48 h with different concentrations (0, 10, 20, 40, and 80 µM) of the six CH compounds. At 48 h, cell cytotoxicity WST-1 assays were performed. The x-axis indicates treatment concentrations, while the y-axis indicates the percentage of cell viability (each absolute absorbance value [abs. 450 nm–630 nm] was normalized with the controls). (C) The capacity of the CH compounds to inhibit the PD-1/PD-L1 interaction was tested using the bioluminescent cell-based assay. Effector cells (growth-arrested reporter Jurkat cells) were preincubated with anti-PD-1 neutralizing antibody (Cat No. 71120), DMSO, or each of the CH compounds. The activity of luciferase was determined as an indicator of cell activation. The graphs present mean ± SD (standard deviation) values from at least three independent experiments. (D) After overnight incubation, KG-1 cells were treated for 48 h with increasing concentrations of the CH compounds (0, 10, 20, 40, or 80 µM). (E) KG-1 cells were incubated with CH compounds prior to sPD-L1-Atto staining. Flow cytometry determined binding of the Ni–NTA-labeled sPD-L1 (PD-L1-Atto) complex to KG-1 cells expressing PD-1. Cell staining (Atto-subset) was blocked in the presence of the CH compounds. The experimental groups are indicated as (a) KG-1/PBS, (b) KG-1/Atto dye, (c) KG-1/sPD-L1/Atto dye, (d) KG-1/sPD-L1/Atto dye/CH-1, (e) KG-1/sPD-L1/Atto dye/CH-2, (f) KG-1/sPD-L1/Atto dye/CH-3, (g) KG-1/sPD-L1/Atto dye/CH-4, (h) KG-1/sPD-L1/Atto dye/CH-5, (i) KG-1/sPD-L1/Atto dye/CH6. (F) The cell staining data from (E) are normalized and quantified as relative MFI values. (G) At 48 h, PD-1 protein (20 µg/well) expression was determined by Western blotting. The bar graphs present the mean ± SD (standard deviation) values from three independent experiments. *p < 0.05, **p < 0.01, ***p < 0.001. TEXT PRINTED IN THE PICTURE: (E) d.: 33.1 % | (E) e.: 38.1 % | (E) f.: 52.9 % | (E) g.: 4.01 % | (E) h.: 38.35 % | (E) i.: 49.35 % DOUBTS OF THE COPYIST ABOUT THIS PICTURE: Panel E: the picture labels the histograms only with the sub-panel letters a.-i.; it prints no compound name or measure beside the percentages, so the letters are used as labels. / Panel E: sub-panels a. (3.52 %), b. (4.59 %) and c. (53.9 %) were left out because they appear to be controls without a test compound. / Panel E, small print: d. 33.1 % (3 or 8), e. 38.1 % (8 or 3), f. 52.9 % (9 or 8), h. 38.35 % (3, 5 and 8 uncertain) and i. 49.35 % (9, 3 and 5 uncertain) are best readings.
(§3) Figure 3 In vitro inhibition by the CH-4 analog of the PD-1/PD-L1 interaction. […]

Jurkat cells = assay: WST-1 cell cytotoxicity assay in Jurkat cells; assay type: cell-based; conditions: WST-1, 48 h
Experimental: as §1, §2, §3

KG-1 cells = assay: WST-1 cell cytotoxicity assay in KG-1 cells; assay type: cell-based; conditions: 10 µM, 48 h
Experimental: as §2
Using the WST-1 assay, CH compound cytotoxicities were quantified at different concentrations in KG-1 cells (Fig. 2D). […] The data indicated an appropriate concentration for testing inhibition of the PD-1/sPD-L1 interaction by flow cytometry. To clarify the inhibitory qualities of CH compounds in sPD-L1/PD-1 interactions, His-tagged sPD-L1 recombinant protein was labeled with Ni–NTA-conjugated fluorescent dye (Atto) and flow cytometry analysis was performed (Fig. 2E). […] When KG-1 cells were treated with increasing concentrations of CH-4, PD-1 expression was unchanged (Fig. 2G).
The WST-1 assay assessed cell cytotoxicity. Briefly, cells were seeded in 96-well plates at a density of […] (100 μL/well) with 10% FBS in the medium and incubated for 48 h, before undergoing a further 1 h of incubation at 37 °C with 10 μL of WST-1 solution added to each well. Cell viability was quantified by colormetric detection using an ELISA plate reader (Beckman Coulter PARADIGM Detection Platform; Beckman Coulter, IL, USA) at absorbance values of 450 nm and 690 nm to generate an optical density proportional to the relative abundance of live cells in the wells.

[1] = WST-1 cell cytotoxicity assay in HEK293 cells; assay type: cell-based; conditions: human, HEK293 cells, WST-1, 48 h
Experimental: as §1, §2, §3

PD-1/sPD-L1 interaction = target: T2, PD-1/sPD-L1 interaction (Homo sapiens, UniProt Q15116); assay: Flow cytometry of sPD-L1-Atto binding to KG-1 cells expressing PD-1; assay type: cell-based; conditions: Ni-NTA-labeled sPD-L1
T2 construct: endogenous in cells; host or cells: KG-1 cells (ATCC)
T2 sequence (Q15116 25-288): as above
Experimental: (§4) Figure 2 In vitro screening of leading compounds. (A) Jurkat cells and (B) HEK293 cells were treated with six leading compounds to test cytotoxicity. Cells were seeded into 96-well plates at a density of 7 × 10^3/well and incubated overnight. The cells were then treated for 48 h with different concentrations (0, 10, 20, 40, and 80 µM) of the six CH compounds. At 48 h, cell cytotoxicity WST-1 assays were performed. The x-axis indicates treatment concentrations, while the y-axis indicates the percentage of cell viability (each absolute absorbance value [abs. 450 nm–630 nm] was normalized with the controls). (C) The capacity of the CH compounds to inhibit the PD-1/PD-L1 interaction was tested using the bioluminescent cell-based assay. […] The activity of luciferase was determined as an indicator of cell activation. […] Flow cytometry determined binding of the Ni–NTA-labeled sPD-L1 (PD-L1-Atto) complex to KG-1 cells expressing PD-1. […] (F) The cell staining data from (E) are normalized and quantified as relative MFI values. (G) At 48 h, PD-1 protein (20 µg/well) expression was determined by Western blotting. […] 49.35 % (9, 3 and 5 uncertain) are best readings.
Using the WST-1 assay, CH compound cytotoxicities were quantified at different concentrations in KG-1 cells (Fig. 2D). […]

[2] = WST-1 cell cytotoxicity assay in Jurkat cells; assay type: cell-based; conditions: human, Jurkat cells, WST-1, 48 h
Experimental: as §1, §2, §3

PD-1 protein = assay: Western blotting of PD-1 protein expression in KG-1 cells; assay type: cell-based; conditions: increasing concentrations, 48 h
Experimental: as §4, with “controls).” for “controls). (C) The capacity of the CH compounds to inhibit the PD-1/PD-L1 interaction was tested using the bioluminescent cell-based assay.”
Figure 3 In vitro inhibition by the CH-4 analog of the PD-1/PD-L1 interaction. […] The x-axis indicates treatment concentrations, while the y-axis indicates the percentage of cell viability (each absolute absorbance value [abs. 450 nm–630 nm] was normalized with the controls). […]

[3] = mean ± SD, Table 1, read-out: CC50 293 cells
[4] = read-out: CC50 HEK293 cells (tolerance)
[5] = mean ± SD, Table 1, read-out: CC50 Jurkat cells
[6] = read-out: CC50 Jurkat cells (tolerance)

O=C(Nc1ccccc1)c1cc2ccccc2oc1=O [CH-4.9]
inhibitory capacity for the PD-1/PD-L1 interaction (luciferase activity) (PD-1/PD-L1 interaction): failed to inhibit
concentration associated with increasing cytotoxicity in HEK293 cells (HEK293 cells; Fig. 3A): exceeding 20 µM
cytotoxicity in Jurkat cells (Jurkat cells; up to 100 µM, Fig. 3A): neither analog showed any evidence of cytotoxicity

C/C(=N\NC(=O)CCSCCC(=O)N/N=C(\C)c1ccccc1)c1ccccc1 [CH-6]
cytotoxicity to KG-1 cells (KG-1 cells): low cytotoxicity
CC50 (HEK293 cells; [3]): 113 ± 26.1 µM
CC50 (HEK293 cells; [4]): > 20 µM
CC50 (Jurkat cells; [5]): 103.4 ± 0.94 µM
CC50 (Jurkat cells; [6]): > 20 µM

O=c1c(/C=C/c2c(O)ccc3ccccc23)nnc2sc(-c3cccc([N+](=O)[O-])c3)nn12 [CH-5]
cytotoxicity to KG-1 cells (KG-1 cells): sensitized
CC50 (HEK293 cells; [3]): 8.52 ± 1.74 µM
CC50 (Jurkat cells; [5]): 10.6 ± 2.67 µM

COc1ccc(N=Nc2ccc3oc(=O)c(C(=O)Nc4ccc(OC)cc4)cc3c2)cc1 [CH-4]
inhibitory capacity for the PD-1/PD-L1 interaction (luciferase activity) (PD-1/PD-L1 interaction): potential inhibitory capacity
cytotoxicity to KG-1 cells (KG-1 cells): low cytotoxicity
CC50 at 48 h [1, 3]: 18.9 ± 1.53 µM
CC50 at 48 h [1, 4]: > 20 µM
inhibition of sPD-L1 binding to KG-1 cells (shift in staining/fluorescence intensity) (PD-1/sPD-L1 interaction): slight, yet significant, shift in staining intensity; also recorded: significantly decreased the shift in fluorescence intensity
CC50 at 48 h [2, 5]: 30.3 ± 1.3 µM
CC50 at 48 h [2, 6]: > 20 µM
PD-1 protein expression (PD-1 protein): unchanged

COc1cc(-c2ccc(NC(=O)CSC(N)=O)c(OC)c2)ccc1NC(=O)CSC(N)=O [CH-3]
cytotoxicity to KG-1 cells (KG-1 cells): low cytotoxicity
CC50 (HEK293 cells; [3]): 78.1 ± 4.95 µM
CC50 (HEK293 cells; [4]): > 20 µM
CC50 (Jurkat cells; [5]): 212 ± 46.5 µM
CC50 (Jurkat cells; [6]): > 20 µM

COc1c(C(=O)Nc2ccc(C3=NCCN3)cc2)cccc1C(=O)Nc1ccc(C2=NCCN2)cc1 [CH-2]
cytotoxicity to KG-1 cells (KG-1 cells): low cytotoxicity
CC50 (HEK293 cells; [3]): 151 ± 32.5 µM
CC50 (HEK293 cells; [4]): > 20 µM
CC50 (Jurkat cells; [5]): 94.9 ± 1.97 µM
CC50 (Jurkat cells; [6]): > 20 µM

Cc1ccccc1NC(=O)C(=O)CC(=O)c1sc(Nc2ccccc2[N+](=O)[O-])nc1C [CH-1]
cytotoxicity to KG-1 cells (KG-1 cells): low cytotoxicity
CC50 (HEK293 cells; [3]): 46.9 ± 10.2 µM
CC50 (HEK293 cells; [4]): > 20 µM
CC50 (Jurkat cells; [5]): 133 ± 5.1 µM
CC50 (Jurkat cells; [6]): > 20 µM
